Here are results for 65 molecules from patent US7205410B2, “4-(aminomethyl)-piperidine benzamides for treating gastrointestinal disorders” (Janssen Pharmaceutica, N.V., priority 1998, dated 2007).

The target of the test is T1, 5HT4 (Rattus norvegicus, UniProt Q62758).
T1 construct: 5HT4 Antagonism in Rat Oesophageal Tunica Muscularis Mucosae; from tissue; host or cells: rat oesophageal tunica muscularis mucosae
Put plainly: 5HT4 antagonism in rat oesophageal tunica muscularis mucosae. The format is cell-based. Particulars: 5HT4 antagonistic data, isolated rat oesophageal tunica muscularis mucosae, method of Baxter et al.; for Kb: read-out: pA2 (converted). How it is done:
5HT4 Antagonism in Rat Oesophageal Tunica Muscularis Mucosae
The 5HT4 antagonistic potence of the present compounds was measured as described in Baxter G. S. et. al, Naunyn-Schmiedeberg's Arch. Pharmacol., 343, 439-446 ([…]).
The pA2 value is calculated as follows: [formula]

Structures are written as SMILES. A value given as a limit tells only on which side of the number the result lay.

T1 sequence (Q62758 whole entry): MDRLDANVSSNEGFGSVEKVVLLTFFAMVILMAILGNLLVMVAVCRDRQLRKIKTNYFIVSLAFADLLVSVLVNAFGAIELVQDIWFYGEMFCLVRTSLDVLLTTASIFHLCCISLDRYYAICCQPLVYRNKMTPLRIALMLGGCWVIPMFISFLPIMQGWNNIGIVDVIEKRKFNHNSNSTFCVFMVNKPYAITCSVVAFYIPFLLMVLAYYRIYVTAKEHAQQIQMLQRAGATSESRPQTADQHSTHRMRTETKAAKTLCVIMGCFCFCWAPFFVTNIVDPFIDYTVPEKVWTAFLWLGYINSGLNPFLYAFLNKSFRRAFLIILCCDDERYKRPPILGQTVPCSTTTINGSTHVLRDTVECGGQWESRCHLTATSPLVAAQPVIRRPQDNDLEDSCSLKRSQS

Take `CC(=O)CCCN1CC[C@@H](CNC(=O)c2cc(Cl)cc3c2OCCO3)[C@H](O)C1` (racemic) [Compound 65, (±)-(trans)-7-chloro-2,3 dihydro-N-[[3-hydroxy-1-(4-oxopentyl)-4-piperidinyl]methyl]-1,4-benzodioxin-5-carboxamide]: the Kb was 363 pM. As to `COCCCN1CC[C@@H](CNC(=O)c2cc(Cl)cc3c2OCCO3)[C@H](O)C1` (racemic) [Compound 67, (±)-(trans)-7-chloro-2,3-dihydro-N-[[3-hydroxy-1-(3-methoxy-propyl)-4-piperidinyl]methyl]-1,4-benzodioxin-5-carboxamide], the Kb is 372 pM.

`Cc1nccnc1NCCCN1CC[C@@H](CNC(=O)c2cc(Cl)cc3c2OCCO3)[C@H](O)C1` (racemic) [Compound 84, (±)-(trans)-7-chloro-2,3-dihydro-N-[[3-hydroxy-1-[3-[(3-methyl-2-pyrazinyl)amino]propyl]-4-piperidinyl]methyl]-1,4-benzodioxin-5-carboxamide]: the Kb is 28.2 pM. On the same count and under the same terms, then `O=C(NC[C@@H]1CCN(CCNc2nccc(O)n2)C[C@H]1O)c1cc(Cl)cc2c1OCCO2` (relative stereo) [Compound 85, (trans)-7-chloro-2,3-dihydro-N-[[3-hydroxy-1-[2-[(4-hydroxy-2 pyrimidinyl)amino]-ethyl]-4-piperidinyl]methyl]-1,4-benzodioxin-5-carboxamide monohydrate], with 302 pM. The pA2 is a measure of antagonist potency on a negative log scale. Read a high pA2 as a more potent antagonist. On to `CCCCN1CCC(CNC(=O)c2cc(Cl)cc3c2OCC3)C(O)C1` (centres unmarked) [Compound 1], for which the pA2 is reported as 8.53.

`CCCCN1CCC(CNC(=O)c2cc(Cl)cc3c2OCC3)C(O)C1` (centres unmarked) [Compound 2]: the pA2 is on record as 10.5. Same read-out and setting: with `COCCCN1CCC(CNC(=O)c2cc(Cl)cc3c2OCC3)C(O)C1` (centres unmarked) [Compound 3] the figure was 8.07; with `O=C(NCC1CCN(Cc2ccccc2)CC1O)c1cc(Cl)cc2c1OCC2` (centres unmarked) [Compound 11], 8.76; with `O=C(NCC1CCN(Cc2ccccc2)CC1O)c1cc(Cl)cc2c1OCC2` (centres unmarked) [Compound 12], 10.2.

Regarding `O=C(NCC1CCN(CCCOc2ccc(F)cc2)CC1O)c1cc(Cl)cc2c1OCC2` (centres unmarked) [Compound 13], the pA2 came out at 8.35.

The molecule `O=C(NCC1CCN(CCCOc2ccc(F)cc2)CC1O)c1cc(Cl)cc2c1OCC2` (centres unmarked) [Compound 14] returned a pA2 of 9.2.

The molecule `O=C(CN1CCC(CNC(=O)c2cc(Cl)cc3c2OCC3)C(O)C1)c1ccccc1` (centres unmarked) [Compound 15] showed a pA2 of 8.4. Still for that read-out and setting: with `CS(=O)(=O)NCCN1CCC(CNC(=O)c2cc(Cl)cc3c2OCC3)C(O)C1` (centres unmarked) [Compound 17] the figure was 9.6; with `O=C(NCC1CCN(CCOCCO)CC1O)c1cc(Cl)cc2c1OCC2` (centres unmarked) [Compound 29], 9.6; with `COC(=O)CCCN1CCC(CNC(=O)c2cc(Cl)cc3c2OCC3)C(O)C1` (centres unmarked) [Compound 31], 9.4. Still for that read-out and setting: with `Cl.O=C(O)CCCN1CCC(CNC(=O)c2cc(Cl)cc3c2OCC3)C(O)C1` (centres unmarked) [Compound 32] the figure was below 8; with `CCCCN1CCC(CNC(=O)c2cc(Cl)cc3c2OCCC3)C(O)C1` (centres unmarked) [Compound 36], 9.8. In turn, `O=C(NCC1CCN(CCCO)CC1O)c1cc(Cl)cc2c1OCCC2` (centres unmarked) [Compound 39] showed a pA2 of 9.81. Take `O=C(NCC1CCN(Cc2ccccc2)CC1O)c1cc(Cl)cc2c1OCCC2` (centres unmarked) [Compound 41]: the pA2 is 9.7. `O=C(CN1CCC(CNC(=O)c2cc(Cl)cc3c2OCCC3)C(O)C1)c1ccccc1.O=C(O)C(=O)O` (centres unmarked) [Compound 42]: the pA2 came to 9.5. Still for that read-out and setting: with `O=C(NCC1CCN(CCCOc2ccc(F)cc2)CC1O)c1cc(Cl)cc2c1OCCC2` (centres unmarked) [Compound 43] the figure was 9.8; with `O=C(NCC1CCN(CCOCCO)CC1O)c1cc(Cl)cc2c1OCCC2.O=C(O)C(=O)O` (centres unmarked) [Compound 52], 9.5; with `COC(=O)CCCN1CCC(CNC(=O)c2cc(Cl)cc3c2OCCC3)C(O)C1` (centres unmarked) [Compound 53], 9.5. Still for that read-out and setting: with `Cl.O=C(O)CCCN1CCC(CNC(=O)c2cc(Cl)cc3c2OCCC3)C(O)C1` (centres unmarked) [Compound 54] the figure was 9.8; with `CCCCN1CCC(CNC(=O)c2cc(Cl)cc3c2OCCO3)C(O)C1.O=C(O)C(=O)O` (centres unmarked) [Compound 63], 9.49; with `COCCCN1CCC(CNC(=O)c2cc(Cl)cc3c2OCCO3)C(O)C1.O=C(O)C(=O)O` (centres unmarked) [Compound 66], 9.26. On the same count and under the same terms, then `O=C(NCC1CCN(CCCO)CC1O)c1cc(Cl)cc2c1OCCO2` (centres unmarked) [Compound 68], with 9.04; and `N#CCCCN1CCC(CNC(=O)c2cc(Cl)cc3c2OCCO3)C(O)C1.O=C(O)C(=O)O` (centres unmarked) [Compound 74], with 9.22; and `O=C(NCC1CCN(Cc2ccccc2)CC1O)c1cc(Cl)cc2c1OCCO2` (centres unmarked) [Compound 77], with 9.19. Molecule `O=C(CN1CCC(CNC(=O)c2cc(Cl)cc3c2OCCO3)C(O)C1)c1ccccc1.O=C(O)C(=O)O` (centres unmarked) [Compound 78] showed a pA2 of 8.44. On the same count and under the same terms, with `O=C(NCC1CCN(CCCOc2ccc(F)cc2)CC1O)c1cc(Cl)cc2c1OCCO2` (centres unmarked) [Compound 79] the figure was 7.93. Still for that read-out and setting: with `O=C(NCC1CCN(CCCOc2ccc(F)cc2)CC1O)c1cc(Cl)cc2c1OCCO2.O=C(O)C(=O)O` (centres unmarked) [Compound 80] the figure was 8.83; with `CCCCN1CCC(CNC(=O)c2cc(Cl)cc3c2OCCO3)C(OC)C1.O=C(O)C(=O)O` (centres unmarked) [Compound 86], 8.2. On the same count and under the same terms, then `COCCCN1CCC(CNC(=O)c2cc(Cl)cc3c2OCCO3)C(OC)C1.O=C(O)C(=O)O` (centres unmarked) [Compound 87], with 8.46; and `COC1CN(CCCOc2ccc(F)cc2)CCC1CNC(=O)c1cc(Cl)cc2c1OCCO2.O=C(O)C(=O)O` (centres unmarked) [Compound 88], with 9.2; and `COC1CN(Cc2ccccc2)CCC1CNC(=O)c1cc(Cl)cc2c1OCCO2` (centres unmarked) [Compound 89], with below 8.

On to `Cl.O=C(NCC1CCN(CCOCCO)CC1O)c1cc(Cl)cc2c1OCCO2` (centres unmarked) [Compound 92], for which the pA2 amounted to 9.7. On the same count and under the same terms, with `COC(=O)CCCN1CCC(CNC(=O)c2cc(Cl)cc3c2OCCO3)C(O)C1` (centres unmarked) [Compound 93] the figure was 9.4; with `Cl.O=C(O)CCCN1CCC(CNC(=O)c2cc(Cl)cc3c2OCCO3)C(O)C1` (centres unmarked) [Compound 94], 9.24; with `CCCCN1CCC(O)(CNC(=O)c2cc(Cl)cc3c2OCCO3)CC1.Cl` [Compound 100], below 8. With `COCCCN1CCC(O)(CNC(=O)c2cc(Cl)cc3c2OCCO3)CC1.O=C(O)C(=O)O` [Compound 101], the pA2 is given as below 7.

As for `CS(=O)(=O)CCCN1CCC(O)(CNC(=O)c2cc(Cl)cc3c2OCCO3)CC1` [Compound 103], the pA2 is below 8. Same read-out and setting: with `CC(=O)CCCN1CCC(O)(CNC(=O)c2cc(Cl)cc3c2OCCO3)CC1` [Compound 106] the figure was below 8; with `O=C(NCC1(O)CCN(CCOCCO)CC1)c1cc(Cl)cc2c1OCCO2.O=C(O)/C=C\C(=O)O` [Compound 107], below 8; with `CC(C)n1ccn(CCN2CCC(O)(CNC(=O)c3cc(Cl)cc4c3OCCO4)CC2)c1=O.O=C(O)C(=O)O` [Compound 116], “˜8”. Still for that read-out and setting: with `O=C(NCC1(O)CCN(CCC2OCCCO2)CC1)c1cc(Cl)cc2c1OCCO2` [Compound 117] the figure was below 8.

`CCCCN1CCC(CNC(=O)c2cc(Cl)cc3c2OCCCO3)C(O)C1` (centres unmarked) [Compound 119] displayed a pA2 of 10.65. The same measure, in the same setting: with `COCCCN1CCC(CNC(=O)c2cc(Cl)cc3c2OCCCO3)C(O)C1` (centres unmarked) [Compound 120] the figure was 9.72; with `CC(=O)CCCN1CCC(CNC(=O)c2cc(Cl)cc3c2OCCCO3)C(O)C1` (centres unmarked) [Compound 121], 9.9. The same measure, in the same setting: then `N#CCCCN1CCC(CNC(=O)c2cc(Cl)cc3c2OCCCO3)C(O)C1` (centres unmarked) [Compound 126], with 9.78; and `COCCCN1CCC(CNC(=O)c2cc(Cl)cc3c2OCCCO3)C(OC)C1.O=C(O)C(=O)O` (centres unmarked) [Compound 129], with above 8; and `CCCCN1CCC(CNC(=O)c2cc(Cl)cc3c2OCCCO3)C(OC)C1.O=C(O)C(=O)O` (centres unmarked) [Compound 130], with 8.5. `CCCCN1CCC(CNC(=O)c2cc(Cl)cc3c2OCCCO3)C(OC)C1.O=C(O)C(=O)O` (centres unmarked) [Compound 131]: the pA2 is recorded as 9.5.

The molecule `COC1CN(Cc2ccccc2)CCC1CNC(=O)c1cc(Cl)cc2c1OCCCO2` (centres unmarked) [Compound 132] displayed a pA2 of 8.5. On to `COC1CN(CCCC(C)=O)CCC1CNC(=O)c1cc(Cl)cc2c1OCCCO2.O=C(O)C(=O)O` (centres unmarked) [Compound 135], for which the pA2 came out at 8.1. On the same count and under the same terms, with `COC1CN(CCCC(C)=O)CCC1CNC(=O)c1cc(Cl)cc2c1OCCCO2.O=C(O)C(=O)O` (centres unmarked) [Compound 139] the figure was 8.6; with `O=C(NCC1CCN(CCCO)CC1O)c1cc(Cl)cc2c1OCCCO2` (centres unmarked) [Compound 144], 10.4. The molecule `Cl.O=C(O)CCCN1CCC(CNC(=O)c2cc(Cl)cc3c2OCCCO3)C(O)C1` (centres unmarked) [Compound 146] displayed a pA2 of 9.1. With `N#CCCCN1CCC(O)(CNC(=O)c2cc(Cl)cc3c2OCCCO3)CC1.O=C(O)C(=O)O` [Compound 167], the pA2 is below 8.

In the case of `COCCCN1CCC(O)(CNC(=O)c2cc(Cl)cc3c2OCCCO3)CC1.O=C(O)C(=O)O` [Compound 168], the pA2 is listed as below 8. The molecule `CS(=O)(=O)CCCN1CCC(O)(CNC(=O)c2cc(Cl)cc3c2OCCCO3)CC1.O` [Compound 169] came in with a pA2 below 8.

The molecule `CCCCN1CCC(O)(CNC(=O)c2cc(Cl)cc3c2OCCCO3)CC1.O=C(O)C(=O)O` [Compound 171] came in with a pA2 below 8. Still for that read-out and setting: with `CC(=O)CCCN1CCC(O)(CNC(=O)c2cc(Cl)cc3c2OCCCO3)CC1.O` [Compound 180] the entry was “˜7.5”; with `CCCCN1CCC(CNC(=O)c2cc(Cl)cc3c2OCCCCO3)C(O)C1.O` (centres unmarked) [Compound 182], 9.4; with `N#CCCCN1CCC(CNC(=O)c2cc(Cl)cc3c2OCCCCO3)C(O)C1.O=C(O)C(=O)O` (centres unmarked) [Compound 188], 10.5.
